{"source": "patent US6339042B1", "about": "“Herbicidal N-cyclohexadienyl heteroaryloxyacetamides” (American Cyanamid Co., priority 1999, dated 2002)", "details_in_all_cases": "three weeks after treatment", "key": {"[1]": {"system": "Hordeum vulgare", "assay": "Post-emergence herbicidal evaluation, HORVW", "protocol": "(§2) Each pot is examined three weeks after treatment and phytotoxicity is assessed according to the rating system set forth below.\n(§3) These acetone solutions are diluted with water and the resulting formulations applied at dosage levels equivalent of about 0.4 to 0.1 kg per hectare of test compound per pot. After spraying the plants are placed on greenhouse benches and are cared for in the usual manner, commensurate with conventional greenhouse practices."}, "[2]": {"system": "Glycine max", "assay": "Pre-emergence herbicidal evaluation, GLXMA", "format": "in vivo", "description": "(§1) The treated pots are then placed on greenhouse benches, watered and cared for in accordance with conventional greenhouse procedures."}, "[3]": {"system": "Zea mays", "assay": "Pre-emergence herbicidal evaluation, ZEAMX", "format": "in vivo", "description": "as §1"}, "[4]": {"system": "Triticum aestivum", "assay": "Post-emergence herbicidal evaluation, TRZAW"}, "[5]": {"system": "Lolium perenne", "assay": "Post-emergence herbicidal evaluation, LOLPE", "protocol": "as §2, §3"}, "[6]": {"system": "Alopecurus myosuroides", "assay": "Post-emergence herbicidal evaluation, ALOMY"}, "[7]": {"system": "Amaranthus tuberculatus", "assay": "Post-emergence herbicidal evaluation, AMATA", "format": "in vivo"}, "[8]": {"system": "Amaranthus tuberculatus", "assay": "Pre-emergence herbicidal evaluation, AMATA", "format": "in vivo", "description": "as §1"}, "[9]": {"system": "Echinochloa crus-galli", "assay": "Pre-emergence herbicidal evaluation, ECHCG", "format": "in vivo", "description": "as §1"}, "[10]": {"system": "Zea mays", "assay": "Post-emergence herbicidal evaluation, ZEAMX"}, "[11]": {"system": "Oryza sativum", "assay": "Pre-emergence herbicidal evaluation, ORYSA", "format": "in vivo", "description": "as §1"}, "[12]": {"system": "Hordeum vulgare", "assay": "Pre-emergence herbicidal evaluation, HORVW", "format": "in vivo", "description": "as §1"}, "[13]": {"system": "Setaria viridis", "assay": "Post-emergence herbicidal evaluation, SETVI"}, "[14]": {"system": "Triticum aestivum", "assay": "Pre-emergence herbicidal evaluation, TRZAW", "format": "in vivo", "description": "as §1"}, "[15]": {"system": "Galium aparine", "assay": "Post-emergence herbicidal evaluation, GALAP"}, "[16]": {"system": "Lolium perenne", "assay": "Pre-emergence herbicidal evaluation, LOLPE", "format": "in vivo", "description": "as §1"}, "[17]": {"system": "Apera spica venti", "assay": "Post-emergence herbicidal evaluation, APESV"}, "[18]": {"system": "Apera spica venti", "assay": "Pre-emergence herbicidal evaluation, APESV", "format": "in vivo", "description": "as §1"}, "[19]": {"system": "Oryza sativum", "assay": "Post-emergence herbicidal evaluation, ORYSA"}, "[20]": {"system": "Setaria viridis", "assay": "Pre-emergence herbicidal evaluation, SETVI", "format": "in vivo", "description": "as §1"}, "[21]": {"system": "Alopecurus myosuroides", "assay": "Pre-emergence herbicidal evaluation, ALOMY", "format": "in vivo", "description": "as §1"}, "[22]": {"system": "Echinochloa crus-galli", "assay": "Post-emergence herbicidal evaluation, ECHCG"}, "[23]": {"system": "Glycine max", "assay": "Post-emergence herbicidal evaluation, GLXMA"}}, "data": [{"smiles": "CCc1nnc(OCC(=O)N(C2=CC(C)(C)CC(C)=C2)C(C)C)s1", "note": "[Example 11]", "values": [{"measurement": "phytotoxicity rating HORVW", "setting": "[1]; 0.100 kg/ha", "result": "0 (0 - No effect)"}, {"measurement": "phytotoxicity rating HORVW", "setting": "[1]; 0.200 kg/ha", "result": "0 (0 - No effect)"}, {"measurement": "phytotoxicity rating HORVW", "setting": "[1]; 0.400 kg/ha", "result": "1 (1 - Trace effect)"}, {"measurement": "phytotoxicity rating GLXMA", "setting": "[2]; 0.100 kg/ha", "result": "0 (0 - No effect)"}, {"measurement": "phytotoxicity rating GLXMA", "setting": "[2]; 0.200 kg/ha", "result": "0 (0 - No effect)"}, {"measurement": "phytotoxicity rating GLXMA", "setting": "[2]; 0.400 kg/ha", "result": "0 (0 - No effect)"}, {"measurement": "phytotoxicity rating GLXMA", "setting": "[2]; 0.800 kg/ha", "result": "0 (0 - No effect)"}, {"measurement": "phytotoxicity rating ZEAMX", "setting": "[3]; 0.100 kg/ha", "result": "0 (0 - No effect)"}, {"measurement": "phytotoxicity rating ZEAMX", "setting": "[3]; 0.200 kg/ha", "result": "0 (0 - No effect)"}, {"measurement": "phytotoxicity rating ZEAMX", "setting": "[3]; 0.400 kg/ha", "result": "0 (0 - No effect)"}, {"measurement": "phytotoxicity rating ZEAMX", "setting": "[3]; 0.800 kg/ha", "result": "7 (7 - Good herbicidal effect)"}, {"measurement": "phytotoxicity rating TRZAW", "setting": "[4]; 0.100 kg/ha", "result": "0 (0 - No effect)"}, {"measurement": "phytotoxicity rating TRZAW", "setting": "[4]; 0.200 kg/ha", "result": "0 (0 - No effect)"}, {"measurement": "phytotoxicity rating TRZAW", "setting": "[4]; 0.400 kg/ha", "result": "1 (1 - Trace effect)"}, {"measurement": "phytotoxicity rating LOLPE", "setting": "[5]; 0.100 kg/ha", "result": "3 (3 - Moderate effect)"}, {"measurement": "phytotoxicity rating LOLPE", "setting": "[5]; 0.200 kg/ha", "result": "5 (5 - Definite injury)"}, {"measurement": "phytotoxicity rating LOLPE", "setting": "[5]; 0.400 kg/ha", "result": "8 (8 - Approaching complete kill)"}, {"measurement": "phytotoxicity rating ALOMY", "setting": "[6]; 0.100 kg/ha", "result": "1 (1 - Trace effect)"}, {"measurement": "phytotoxicity rating ALOMY", "setting": "[6]; 0.200 kg/ha", "result": "7 (7 - Good herbicidal effect)"}, {"measurement": "phytotoxicity rating ALOMY", "setting": "[6]; 0.400 kg/ha", "result": "8 (8 - Approaching complete kill)"}, {"measurement": "phytotoxicity rating AMATA", "setting": "[7]; 0.100 kg/ha", "result": "0 (0 - No effect)"}, {"measurement": "phytotoxicity rating AMATA", "setting": "[7]; 0.200 kg/ha", "result": "3 (3 - Moderate effect)"}, {"measurement": "phytotoxicity rating AMATA", "setting": "[7]; 0.400 kg/ha", "result": "4 (4 - Injury)"}, {"measurement": "phytotoxicity rating AMATA", "setting": "[8]; 0.100 kg/ha", "result": "0 (0 - No effect)"}, {"measurement": "phytotoxicity rating AMATA", "setting": "[8]; 0.200 kg/ha", "result": "0 (0 - No effect)"}, {"measurement": "phytotoxicity rating AMATA", "setting": "[8]; 0.400 kg/ha", "result": "0 (0 - No effect)"}, {"measurement": "phytotoxicity rating AMATA", "setting": "[8]; 0.800 kg/ha", "result": "4 (4 - Injury)"}, {"measurement": "phytotoxicity rating ECHCG", "setting": "[9]; 0.100 kg/ha", "result": "7 (7 - Good herbicidal effect)"}, {"measurement": "phytotoxicity rating ECHCG", "setting": "[9]; 0.200 kg/ha", "result": "7 (7 - Good herbicidal effect)"}, {"measurement": "phytotoxicity rating ECHCG", "setting": "[9]; 0.400 kg/ha", "result": "9 (9 - Complete kill)"}, {"measurement": "phytotoxicity rating ECHCG", "setting": "[9]; 0.800 kg/ha", "result": "9 (9 - Complete kill)"}, {"measurement": "phytotoxicity rating ZEAMX", "setting": "[10]; 0.100 kg/ha", "result": "0 (0 - No effect)"}, {"measurement": "phytotoxicity rating ZEAMX", "setting": "[10]; 0.200 kg/ha", "result": "1 (1 - Trace effect)"}, {"measurement": "phytotoxicity rating ZEAMX", "setting": "[10]; 0.400 kg/ha", "result": "4 (4 - Injury)"}, {"measurement": "phytotoxicity rating ORYSA", "setting": "[11]; 0.100 kg/ha", "result": "0 (0 - No effect)"}, {"measurement": "phytotoxicity rating ORYSA", "setting": "[11]; 0.200 kg/ha", "result": "1 (1 - Trace effect)"}, {"measurement": "phytotoxicity rating ORYSA", "setting": "[11]; 0.400 kg/ha", "result": "4 (4 - Injury)"}, {"measurement": "phytotoxicity rating ORYSA", "setting": "[11]; 0.800 kg/ha", "result": "6 (6 - Herbicidal effect)"}, {"measurement": "phytotoxicity rating HORVW", "setting": "[12]; 0.100 kg/ha", "result": "0 (0 - No effect)"}, {"measurement": "phytotoxicity rating HORVW", "setting": "[12]; 0.200 kg/ha", "result": "0 (0 - No effect)"}, {"measurement": "phytotoxicity rating HORVW", "setting": "[12]; 0.400 kg/ha", "result": "1 (1 - Trace effect)"}, {"measurement": "phytotoxicity rating HORVW", "setting": "[12]; 0.800 kg/ha", "result": "4 (4 - Injury)"}, {"measurement": "phytotoxicity rating SETVI", "setting": "[13]; 0.100 kg/ha", "result": "0 (0 - No effect)"}, {"measurement": "phytotoxicity rating SETVI", "setting": "[13]; 0.200 kg/ha", "result": "0 (0 - No effect)"}, {"measurement": "phytotoxicity rating SETVI", "setting": "[13]; 0.400 kg/ha", "result": "0 (0 - No effect)"}, {"measurement": "phytotoxicity rating TRZAW", "setting": "[14]; 0.100 kg/ha", "result": "0 (0 - No effect)"}, {"measurement": "phytotoxicity rating TRZAW", "setting": "[14]; 0.200 kg/ha", "result": "0 (0 - No effect)"}, {"measurement": "phytotoxicity rating TRZAW", "setting": "[14]; 0.400 kg/ha", "result": "2 (2 - Slight effect)"}, {"measurement": "phytotoxicity rating TRZAW", "setting": "[14]; 0.800 kg/ha", "result": "3 (3 - Moderate effect)"}, {"measurement": "phytotoxicity rating GALAP", "setting": "[15]; 0.100 kg/ha", "result": "0 (0 - No effect)"}, {"measurement": "phytotoxicity rating GALAP", "setting": "[15]; 0.200 kg/ha", "result": "0 (0 - No effect)"}, {"measurement": "phytotoxicity rating GALAP", "setting": "[15]; 0.400 kg/ha", "result": "0 (0 - No effect)"}, {"measurement": "phytotoxicity rating LOLPE", "setting": "[16]; 0.100 kg/ha", "result": "4 (4 - Injury)"}, {"measurement": "phytotoxicity rating LOLPE", "setting": "[16]; 0.200 kg/ha", "result": "5 (5 - Definite injury)"}, {"measurement": "phytotoxicity rating LOLPE", "setting": "[16]; 0.400 kg/ha", "result": "8 (8 - Approaching complete kill)"}, {"measurement": "phytotoxicity rating LOLPE", "setting": "[16]; 0.800 kg/ha", "result": "9 (9 - Complete kill)"}, {"measurement": "phytotoxicity rating APESV", "setting": "[17]; 0.100 kg/ha", "result": "0 (0 - No effect)"}, {"measurement": "phytotoxicity rating APESV", "setting": "[17]; 0.200 kg/ha", "result": "7 (7 - Good herbicidal effect)"}, {"measurement": "phytotoxicity rating APESV", "setting": "[17]; 0.400 kg/ha", "result": "5 (5 - Definite injury)"}, {"measurement": "phytotoxicity rating APESV", "setting": "[18]; 0.100 kg/ha", "result": "0 (0 - No effect)"}, {"measurement": "phytotoxicity rating APESV", "setting": "[18]; 0.200 kg/ha", "result": "0 (0 - No effect)"}, {"measurement": "phytotoxicity rating APESV", "setting": "[18]; 0.400 kg/ha", "result": "5 (5 - Definite injury)"}, {"measurement": "phytotoxicity rating APESV", "setting": "[18]; 0.800 kg/ha", "result": "5 (5 - Definite injury)"}, {"measurement": "phytotoxicity rating ORYSA", "setting": "[19]; 0.100 kg/ha", "result": "0 (0 - No effect)"}, {"measurement": "phytotoxicity rating ORYSA", "setting": "[19]; 0.200 kg/ha", "result": "0 (0 - No effect)"}, {"measurement": "phytotoxicity rating ORYSA", "setting": "[19]; 0.400 kg/ha", "result": "2 (2 - Slight effect)"}, {"measurement": "phytotoxicity rating SETVI", "setting": "[20]; 0.100 kg/ha", "result": "6 (6 - Herbicidal effect)"}, {"measurement": "phytotoxicity rating SETVI", "setting": "[20]; 0.200 kg/ha", "result": "8 (8 - Approaching complete kill)"}, {"measurement": "phytotoxicity rating SETVI", "setting": "[20]; 0.400 kg/ha", "result": "8 (8 - Approaching complete kill)"}, {"measurement": "phytotoxicity rating SETVI", "setting": "[20]; 0.800 kg/ha", "result": "9 (9 - Complete kill)"}, {"measurement": "phytotoxicity rating ALOMY", "setting": "[21]; 0.100 kg/ha", "result": "7 (7 - Good herbicidal effect)"}, {"measurement": "phytotoxicity rating ALOMY", "setting": "[21]; 0.200 kg/ha", "result": "8 (8 - Approaching complete kill)"}, {"measurement": "phytotoxicity rating ALOMY", "setting": "[21]; 0.400 kg/ha", "result": "8 (8 - Approaching complete kill)"}, {"measurement": "phytotoxicity rating ALOMY", "setting": "[21]; 0.800 kg/ha", "result": "9 (9 - Complete kill)"}, {"measurement": "phytotoxicity rating ECHCG", "setting": "[22]; 0.100 kg/ha", "result": "0 (0 - No effect)"}, {"measurement": "phytotoxicity rating ECHCG", "setting": "[22]; 0.200 kg/ha", "result": "2 (2 - Slight effect)"}, {"measurement": "phytotoxicity rating ECHCG", "setting": "[22]; 0.400 kg/ha", "result": "3 (3 - Moderate effect)"}, {"measurement": "phytotoxicity rating GLXMA", "setting": "[23]; 0.100 kg/ha", "result": "3 (3 - Moderate effect)"}, {"measurement": "phytotoxicity rating GLXMA", "setting": "[23]; 0.200 kg/ha", "result": "5 (5 - Definite injury)"}, {"measurement": "phytotoxicity rating GLXMA", "setting": "[23]; 0.400 kg/ha", "result": "5 (5 - Definite injury)"}]}]}
